The record followed here is patent US9969758B2, “Antimicrobial compounds” (BIOMERIEUX, priority 2014, dated 2018).

In brackets after ≈: the same amount, converted by molar mass.

The assay has as its system All S. aureus (50). In words: MIC by agar dilution. The settings on record: All S. aureus (50). It is filed as cell-based, Staphylococcus aureus. The gist of the method: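 Agar dilution in peptone-free medium with lysed horse blood, NAD and hemin; compounds at 0.0031–8.0 μg/mL (0.016–32 μg/mL for Gram-positives). Inoculum 10 000 CFU/spot, 22 h at 37 °C; fosfomycin tested in IsoSensitest plus glucose-6-phosphate. Clinical and control isolates, at least two independent replicates.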

Regarding `C[C@H](N)C(=O)N[C@@H](C)P(=O)(O)O` [Alafosfalin, L-alanyl-L-1-aminoethylphosphonic acid], the “MIC Range” value was 0.125 to 16 µg/mL. The MIC50 (Staphylococcus aureus, read-out: MIC50) amounted to 4 µg/mL (≈ 20.4 µM). Also, under “Staphylococcus aureus, read-out: MIC90”, the MIC90 was 8 µg/mL (≈ 40.8 µM). The MIC (Staphylococcus aureus, read-out: Modal MIC (most frequent MIC)) worked out at 4 µg/mL (≈ 20.4 µM).

The MIC50 is an inhibitory concentration at the 50% level, which refers to growth in some studies and to a panel of isolates in others. As a reminder, the MIC90 is an inhibitory concentration at the 90% level, which refers to growth in some studies and to a panel of isolates in others. Usually MIC stands for the least concentration at which growth counts as inhibited.
